Tests used:
R. solanacearum [1] = format: cell-based; conditions: Oxford cup, 37° C., 16-18 hours, FIG. 1
R. solanacearum [2] = conditions: for bactericidal activity against R. solanacearum: from data in Table 4

SMILES	bactericidal activity (zone of inhibition), preliminary screening (R. solanacearum [1])	LC50 (E. carotovora) [ppm]	LC50 (E. coli) [ppm]	activity against E. coli compared with the control drugs (E. coli)	LC50 (R. solanacearum [2]) [ppm]	activity against E. carotovora compared with the control drugs (E. carotovora)	bactericidal activity against R. solanacearum (R. solanacearum [2])
O=C(O)c1cn(C2CC2)c2ccccc2c1=O [Compound I2]	significant bactericidal activity	5.284	0.913	more active against E. coli than the control drugs	13.790		
CCn1cc(C(=O)O)c(=O)c2ccc(C)nc21 [Compound I36]	significant bactericidal activity	15.743	37.917		30.519		
CCn1cc(C(=O)O)c(=O)c2cc(F)c(Cl)nc21 [Compound I38]	significant bactericidal activity	0.264	12.643		12.724	more active against E. carotovora than the control drugs	
O=C(O)c1cn(C2CC2)c2nc(Cl)c(F)cc2c1=O [Compound I40]	significant bactericidal activity	4.040	0.064	more active against E. coli than the control drugs	0.002	more active against E. carotovora than the control drugs	significant bactericidal activity
O=C(O)c1cn(C2CC2)c2nc(N3CCNCC3)c(F)cc2c1=O [Compound I44]	significant bactericidal activity	0.00018	0.0000091	more active against E. coli than the control drugs	0.284	more active against E. carotovora than the control drugs	significant bactericidal activity
[H]/N=C(/N)N[C@H]1[C@H](O)[C@@H](O)[C@H](O[C@@H]2O[C@@H](C)[C@](O)(C=O)[C@H]2O[C@@H]2O[C@@H](CO)[C@H](O)[C@@H](O)[C@@H]2NC)[C@@H](N/C(N)=N\[H])[C@@H]1O [Streptomycin, reference compound]		4.519	1.918		0.169		
